Results reported in US7087721B2, “Compositions, kits and treating methods for alteration cell-cell adhesion, transport, or permeation properties of tissues” (priority 2003, dated 2006).
Entries after “also recorded” stand apart in the source; their conditions may differ.

How the values were obtained:
Format in all cases: cell-based, human
[1] = tested on: TMG-expressed A2058 cells; assay: Carbohydrate specificity for TM-mediated cell adhesion, TMG cells; conditions: 37° C. overnight, light microscopy
Description: A variety of simple carbohydrate (D-mannose, D-galactose, D-lactose, D-glucose, D-xylose), heparin, LMW heparin, chondroitin sulfate A, chondroitin sulfate B, and chondroitin sulfate C were tested to determine their ability to block cell-cell adhesion of the TMG cells. In these experiments, the carbohydrate to be tested was added to the cell monolayer to compare its ability to compete with the TMG. The plates were then incubated at 37° C. for overnight and examined by light microscopy (Leica Model DM IL).
FIG. 8. Effect of different carbohydrates on the cell adhesion of TMG cells. TMG-expressed A2058 cells were challenged with 20 mg/ml of monosaccharides (including D-glucose, D-galactose, D-lactose, D-xylose, D-mannose), 20 mg/ml of chondroitin sulfate A, B, C, or 15 mg/ml of heparin, LMW heparin. Following incubation at 37° C. overnight, images were obtained. Each image is representative of the observations from three separate experiments.

[2] = tested on: A2058TMG cells; assay: Calcium-switch method, A2058TMG cells; conditions: 4 mM EGTA, 40 min
Description: (§1) Cells were grown overnight on glass coverslips at a constant density (5×10^4 cells/well) in 24 well culture plates. The cells were serum-starved for 8 h and Ca^2+ was removed by incubation with DMEM medium containing 4 mM ethyleneglycol-bis-(Amino-Ethyl-Ether) N,N,N′,N′-tetraacetic acid (EGTA) and 1 mM MgCl2 at 37° C. After 1 h, the DMEM medium containing 1.8 mM Ca^2+ was added to replace the Ca^2+-free medium. In control experiments, cells received fresh media in the absence of EGTA. In selected experiments, 10 μg/ml of anti-TM lectin-like antibody, 10 μg/ml of isotype-specific control antibody or anti-E-cadherin antibody (20 μg/ml) was added to the Ca^2+-containing medium.
(§2) FIG. 6. TM participates in Ca^2+-dependent cell-cell adhesion. A2058TMG (A–E) and HaCaT cells (F–J) were left untreated (A, F) or treated with 4 mM EGTA for 40 min (B–E, G–J). The EGTA containing medium was then replaced with Ca^2+-containing medium in the presence of 10 μg/ml control IgG (C, H) for 1 h. After treatment with EGTA, cells were incubated for 1 h in medium containing 1.8 mM Ca^2+ and 10 ? g/ml function-blocking anti-lectin-like antibody (D, I), or anti-E-cadherin antibody (E, J). Green fluorescence shown in panels A to E is the GFP-tagged TM proteins, whereas panels F to J indicate the TM distribution by anti-EGF-like domain antibody detected with tetramethylrhodamine-conjugated anti-mouse antibody. […]

[3] = tested on: HaCaT cells; assay: Calcium-switch method, HaCaT cells; conditions: 4 mM EGTA, 40 min
Description: as §1, §2

Row | Molecule | ability to disperse the close clustering morphology of TMG culture cells ([1]; 20 mg/ml) | also measured
1 | OC[C@H]1O[C@@H](O[C@H]2[C@H](O)[C@@H](O)C(O)O[C@@H]2CO)[C@H](O)[C@@H](O)[C@H]1O (stereo partly drawn) [D-lactose] | only mannose was found to be effective | 
2 | O=C(O)CN(CCOCCOCCN(CC(=O)O)CC(=O)O)CC(=O)O [EGTA, ethyleneglycol-bis-(Amino-Ethyl-Ether) N,N,N′,N′-tetraacetic acid] |  | cell-to-cell contacts in EGTA-containing medium [2]: disrupted; cell-to-cell contacts in EGTA-containing medium [3]: disrupted
3 | O=C[C@H](O)[C@@H](O)[C@H](O)CO [D-xylose] | only mannose was found to be effective | 
4 | O=C[C@@H](O)[C@@H](O)[C@H](O)[C@H](O)CO [D-mannose] | effective in inducing of cell dispersion; also recorded: highest dispersing effect | 
5 | O=C[C@H](O)[C@@H](O)[C@H](O)[C@H](O)CO [D-glucose] | only mannose was found to be effective | 
6 | heparin |  | ability to disperse the close clustering morphology of TMG culture cells ([1]; 15 mg/ml): minor inhibitory effect on the cell adhesion
7 | O=C[C@H](O)[C@@H](O)[C@@H](O)[C@H](O)CO [D-galactose] | only mannose was found to be effective | 
8 | chondroitin 6-sulfate [chondroitin sulfate C] | could induce cell dispersion | 
9 | chondroitin 4-sulfate [chondroitin sulfate A] | could induce cell dispersion | 
10 | dermatan sulfate [chondroitin sulfate B] | no effect | 
